According to patent US5776718A, “Reversible protease inhibitors” (Arris Pharmaceutical Corporation, priority 1996, dated 1998):
Like-named read-outs stand apart in the source and are kept apart here.

What was measured:
cathepsin L = cathepsin L (Homo sapiens, UniProt P07711); test: Inhibition of cathepsin L, fluorogenic substrate Z-Phe-Arg-AMC; type: biochemical
Method: (§1) Conditions for cathepsin L: 50 mM acetate, pH 5.5, 2.5 mM EDTA, 2.5 mM DTT. substrate: [Z-Phe-Arg-AMC]=5 mM (Km=2 mM). The assay at 25^0 was started by the addition of cat L (final concentration approx 1 nM) and the increase in fluorescence at 450 nm with excitation at 380 nm was followed over 2 min. The depression in the rate of substrate hydrolysis following addition of varying concentrations of inhibitors was noted. The assay was linear throughout the range observed. Duplicate runs were measured.
(§2) The respective Ki values were estimated by using the Dixon plot as described by Irwin Segel in Enzyme Kinetics: Behavior and analysis of rapid equilibrium and steady-state enzyme systems, 1975, Wiley-lnterscience Publication, John Wiley & Sons, New York.

cruzain = cruzain (Trypanosoma cruzi, UniProt P25779); test: Inhibition of cruzain (conditions as for cathepsin L); type: biochemical, T. cruzi
Method: as §1
Conditions for cruzain were the same as for cathepsin L with the exception that the Km for the substrate was 1 mM.
as §2

cathepsin B = cathepsin B (Homo sapiens, UniProt P07858); test: Inhibition of cathepsin B, fluorogenic substrate Z-Arg-Arg-AMC; type: biochemical
Method: as §1, with “The” for “Conditions for cathepsin L: 50 mM acetate, pH 5.5, 2.5 mM EDTA, 2.5 mM DTT. substrate: [Z-Phe-Arg-AMC]=5 mM (Km=2 mM). The”, “250” for “25^0”, “B” for “L”, “10” for “1”
as §2

cathepsin S = cathepsin S (Homo sapiens, UniProt P25774); test: Inhibition of cathepsin S, fluorogenic substrate Z-Val-Val-Arg-AMC; type: biochemical; settings: 50 mM phosphate, pH 6.5, 2.5 mM EDTA, 2.5 mM DTT; Dixon plot
Method: as §1, with “The” for “Conditions for cathepsin L: 50 mM acetate, pH 5.5, 2.5 mM EDTA, 2.5 mM DTT. substrate: [Z-Phe-Arg-AMC]=5 mM (Km=2 mM). The”, “250” for “25^0”, “S” for “L”, “[…])” for “1 nM)”
as §2

[1] = 50 mM acetate, pH 5.5, 2.5 mM EDTA, 2.5 mM DTT, Dixon plot, read-out: cathepsin L (Ki μM)
[2] = 50 mM acetate, pH 5.5, 2.5 mM EDTA, 2.5 mM DTT, Km 1 mM, Dixon plot, read-out: cruzain (Ki μM)
[3] = 50 mM phosphate, pH 6.0, 2.5 mM EDTA, 2.5 mM DTT, Dixon plot, read-out: cathepsin B (Ki μM)

Chain of cathepsin L (P07711 114-333, species assumed): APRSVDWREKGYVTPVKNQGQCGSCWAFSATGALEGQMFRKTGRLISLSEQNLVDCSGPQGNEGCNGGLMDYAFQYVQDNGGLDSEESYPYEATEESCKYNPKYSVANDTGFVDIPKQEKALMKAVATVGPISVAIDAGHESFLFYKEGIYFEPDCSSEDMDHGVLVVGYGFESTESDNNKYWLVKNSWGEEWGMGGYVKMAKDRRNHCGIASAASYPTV
Chain of cruzain (P25779 123-467): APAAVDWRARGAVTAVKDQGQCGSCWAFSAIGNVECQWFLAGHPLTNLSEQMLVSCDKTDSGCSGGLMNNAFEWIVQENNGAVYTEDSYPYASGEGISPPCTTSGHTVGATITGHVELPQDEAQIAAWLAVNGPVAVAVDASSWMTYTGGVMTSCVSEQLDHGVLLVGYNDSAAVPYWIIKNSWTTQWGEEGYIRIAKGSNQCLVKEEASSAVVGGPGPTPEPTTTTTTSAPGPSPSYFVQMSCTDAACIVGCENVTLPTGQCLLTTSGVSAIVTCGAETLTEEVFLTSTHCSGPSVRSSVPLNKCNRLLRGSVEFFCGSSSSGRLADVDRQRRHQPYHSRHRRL
Chain of cathepsin S (P25774 115-331, species assumed): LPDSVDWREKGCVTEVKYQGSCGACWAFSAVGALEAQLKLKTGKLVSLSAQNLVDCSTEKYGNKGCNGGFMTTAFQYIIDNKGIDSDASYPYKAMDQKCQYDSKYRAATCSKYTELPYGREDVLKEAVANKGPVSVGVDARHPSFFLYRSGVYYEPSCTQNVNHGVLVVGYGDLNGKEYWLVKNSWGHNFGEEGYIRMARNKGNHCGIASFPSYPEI

Compound	Ki (cathepsin L; [1])	Ki (cruzain; [2])	Ki (cathepsin B; [3])	Ki (cruzain)	Ki (cathepsin S)	Ki (cathepsin B)	Ki (cathepsin L)
Nc1ccc(CC[C@H](CCc2ccccc2)NC(=O)[C@H](Cc2ccccc2)NC(=O)N2CCOCC2)cc1 [Mu--Phe--Hph--γPh--NH2, N^2-(4-morpholinylcarbonyl)-N^1 -{3-phenyl-1S-[2-(4-aminophenyl)ethyl]propyl}-L-phenylalaninamide]	2.9 µM	3 µM	–	–	–	–	–
O=C(N[C@@H](CCc1ccccc1)CCS(=O)(=O)c1ccccc1)[C@H](Cc1ccccc1)NC(=O)N1CCOCC1 [Mu--Phe--HphγSO2 Ph, N^2-(4-morpholinylcarbonyl)-N^1-[3-phenyl-1S-(2-phenylsulfonylethyl)propyl]-L-phenylalaninamide]	10 µM	4.3 µM	48 µM	–	–	–	–
O=C(N[C@@H](CCc1ccccc1)CCS(=O)(=O)c1ccccc1)[C@H](Cc1ccc(O)cc1)NC(=O)N1CCOCC1 [Mu--Tyr--HphγSO2 Ph, (S)-3-(4-morpholinecarbonyltyrosyl)-amino-5-phenyl-1-phenylsulfonylpentane]	2.3 µM	–	–	20 µM	–	–	–
CC(C)C[C@H](NC(=O)N1CCOCC1)C(=O)NC(CCc1ccccc1)S(=O)(=O)c1ccccc1 (stereo partly drawn) [Mu--Leu--HphαSO2 Ph, N^2-(4-morpholinylcarbonyl)-N^1-(3-phenyl-1-phenylsulfonylpropyl)-L-leucinamide]	1.3 µM	0.27 µM	16 µM	–	1.6 µM	–	–
NCCC(=O)N[C@@H](Cc1ccccc1)C(=O)N[C@@H](CCc1ccccc1)CCS(=O)(=O)c1ccccc1 [β-Ala--Phe--HphγSO2 Ph, N^2-(β-alanyl)-N^1-[3-phenyl-1S-(2-phenylsulfonylethyl)propyl]-L-phenylalaninamide]	14 µM	14 µM	–	–	–	–	–
O=C(N[C@@H](CCc1ccccc1)CCS(=O)(=O)CCc1ccccc1)[C@H](Cc1ccccc1)NC(=O)N1CCOCC1 [Mu--Phe--HphγSO2 EtPh, N^2-(4-morpholinylcarbonyl)-N^1 -{3-phenyl-1S-[2-(2-phenylethylsulfonyl)ethyl]propyl}-L-phenylalaninamide]	0.17 µM	5.9 µM	–	–	–	–	–
O=C(N[C@@H](CCc1ccccc1)CCS(=O)(=O)c1ccc2ccccc2c1)[C@H](Cc1ccc2ccccc2c1)NC(=O)N1CCOCC1 [Mu--Np2-HphγSO2 Np, N^2-(4-morpholinylcarbonyl)-N^1 -{3-phenyl-1S-[2-(2-naphthylsulfonyl)ethyl]propyl}-β-(2-naphthyl)-L-alaninamide]	0.26 µM	0.1 µM	20 µM	–	–	–	–
O=C(N[C@@H](CCc1ccccc1)CS(=O)(=O)c1ccccc1)[C@H](Cc1ccccc1)NC(=O)N1CCOCC1 [Mu--Phe--HphβSO2 Ph, N^1-(4-morpholinylcarbonyl)-N^1-(3-phenyl-1S-phenylsulfonylmethylpropyl)-L-phenylalaniamide]	29 µM	5.7 µM	1100 µM	–	–	–	–
O=C(N[C@@H](CCc1ccccc1)S(=O)(=O)c1ccccc1)[C@H](Cc1ccccc1)NC(=O)N1CCOCC1 [Mu--Phe--HphαSO2 Ph]	–	–	–	–	2.6 µM	–	–
CC(C)C[C@H](NC(=O)N1CCOCC1)C(=O)NC(CCc1ccccc1)S(=O)(=O)Cc1ccccc1 (stereo partly drawn) [Mu--Leu--HphαSO2 Bzl, N^2-(4-morpholinylcarbonyl)-N^1-(3-phenyl-1-benzylsulfonylpropyl)-L-leucinamide]	0.6 µM	0.76 µM	54 µM	–	4.2 µM	–	–
O=C(CCNC(=O)OCc1ccccc1)N[C@@H](Cc1ccccc1)C(=O)N[C@@H](CCc1ccccc1)CCS(=O)(=O)c1ccccc1 [Z--β-Ala--Phe--HphγSO2 Ph, M-(N-benzyloxycarbonyl-β-alanyl)-N^1-[3-phenyl-1S-(2-phenylsulfonylethyl)propyl]-L-phenylalaninamide]	0.79 µM	0.54 µM	52 µM	–	–	–	–
COC(=O)CCC(=O)N[C@@H](Cc1ccccc1)C(=O)N[C@@H](CCc1ccccc1)CCS(=O)(=O)c1ccccc1 [MeOSuc--Phe--HphγSO2 Ph, methyl 3-{2-phenyl-1S-[3-phenyl-1S-(2-phenylsulfonylethyl)propylcarbamoyl]ethylcarbamoyl}propionate]	3.2 µM	4.7 µM	81 µM	–	–	–	–
O=C(NC(CCc1ccccc1)S(=O)(=O)c1ccccc1)[C@H](Cc1ccccc1)NC(=O)N1CCOCC1 (stereo partly drawn) [Mu--Phe--(DL)HphαSO2 Ph, N^2-(4-morpholinylcarbonyl)-N^1-(3-phenyl-1-phenylsulfonylpropyl)-L-phenylalaninamide]	13 µM	15 µM	3000 µM	–	5 µM	–	–
O=C(CC[C@H](CCc1ccccc1)NC(=O)[C@H](Cc1ccccc1)NC(=O)N1CCOCC1)Nc1ccccc1 [Mu--Phe--HphγCONHPh, N^2-(4-morpholinylcarbonyl)-N^1-[3-phenyl-1S-(2-phenylcarbamoylethyl)propyl]-L-phenylalaninamide]	2 µM	0.13 µM	2.6 µM	–	–	–	–
COc1ccc(CC[C@H](CCc2ccccc2)NC(=O)[C@H](Cc2ccccc2)NC(=O)N2CCOCC2)cc1 [Mu--Phe--Hph-γPh--OMe, N^2-(4-morpholinylcarbonyl)-N^1 -{3-phenyl-1S-[2-(4-methoxyphenyl)ethyl]propyl}-L-phenylalaninamide]	0.94 µM	0.89 µM	4.8 µM	–	–	–	–
O=C(O)CCC(=O)N[C@@H](Cc1ccc2ccccc2c1)C(=O)N[C@@H](CCc1ccccc1)CCS(=O)(=O)c1ccccc1 [Suc--Np2--HphγSO2 Ph, 3-{2-naphthyl-1S-[3-phenyl-1S-(2-phenylsulfonylethyl)propylcarbamoyl]ethylcarbamoyl}propionic acid]	2.3 µM	0.78 µM	> 1000 µM	–	–	–	–
O=C(NC(CCc1ccccc1)S(=O)(=O)Cc1ccccc1)[C@H](Cc1ccccc1)NC(=O)N1CCOCC1 (stereo partly drawn) [Mu--Phe--HphαSO2 Bzl, N^2-(4-morpholinylcarbonyl)-N^1-(3-phenyl-1-benzylsulfonylpropyl)-L-phenylalaninamide]	1.2 µM	0.92 µM	77 µM	–	–	–	–
O=C(Cc1ccccc1)N[C@@H](Cc1ccccc1)C(=O)N[C@@H](CCc1ccccc1)CCS(=O)(=O)c1ccccc1 [Phac--Phe--HphγSO2 Ph, N^2-phenylacetyl-N^1-[3-phenyl-1S-(2-phenylsulfonylethyl)propyl]-L-phenylalaninamide]	0.41 µM	1.8 µM	> 10 µM	–	–	–	–
O=C(CC[C@H](CCc1ccccc1)NC(=O)[C@H](Cc1ccccc1)NC(=O)N1CCOCC1)NCc1ccccc1 [Mu--Phe--HphγCONHBzl, N^2-(4-morpholinylcarbonyl)-N^1-[3-phenyl-1S-(2-benzylcarbamoylethyl)propyl]-L-phenylalaninamide]	19 µM	7.7 µM	–	–	–	–	–
O=C(NC(CCc1ccccc1)S(=O)(=O)c1ccccc1)[C@H](Cc1ccccc1)NC(=O)N1CCOCC1 (stereo partly drawn) [Mu--Phe--(DL)HphαSO2 Ph,]	–	–	–	–	3.7 µM	–	–
O=C(NC(CCc1ccccc1)S(=O)(=O)C(F)(F)F)[C@H](Cc1ccccc1)NC(=O)N1CCOCC1 (stereo partly drawn) [Mu--Phe--HphαSO2 CR3, N^2-(4-morpholinylcarbonyl)-N^1-(3-phenyl-1-trifluoromethylsulfonylpropyl)-L-phenylalaninamide]	0.18 µM	0.23 µM	50 µM	–	–	–	–
O=C(NC(CCc1ccccc1)S(=O)(=O)CF)[C@H](Cc1ccccc1)NC(=O)N1CCOCC1 (stereo partly drawn) [Mu--Phe--HphαSO2 CH2 F, N^2-(4-morpholinylcarbonyl)-N^1-(3-phenyl-1-fluoromethylsulfonylpropyl)-L-phenylalaninamide]	1.5 µM	2 µM	170 µM	–	2.8 µM	–	–
O=C(O)CCC(=O)N[C@@H](Cc1ccccc1)C(=O)N[C@@H](CCc1ccccc1)CCS(=O)(=O)c1ccccc1 [Suc--Phe--HphγSO2 Ph, 3-{2-phenyl-1S-[3-phenyl-1S-(2-phenylsulfonylethyl)propylcarbamoyl]ethylcarbamoyl}propionic acid]	1 µM	1.5 µM	> 1000 µM	–	–	–	–
CCOP(=O)(CC[C@H](CCc1ccccc1)NC(=O)[C@H](Cc1ccccc1)NC(=O)N1CCOCC1)OCC [Mu--Phe--HphγPO(O2 Et)2]	–	–	–	15 µM	–	17 µM	3 µM
CCOC(=O)CC[C@H](CCc1ccccc1)NC(=O)[C@H](Cc1ccccc1)NC(=O)N1CCOCC1 [Mu--Phe--HphγCO2 Et, ethyl 4S-[N-(4-morpholinylcarbonyl)-L-phenylalanylamino]-6-phenylhexanoate]	0.48 µM	0.91 µM	1.6 µM	–	–	–	–
O=C(O)CCC(=O)N[C@@H](Cc1ccc2ccccc2c1)C(=O)N[C@@H](CCc1ccccc1)CCS(=O)(=O)c1ccc2ccccc2c1 [Suc--Np2--HphγSO2 2Np]	0.11 µM	0.23 µM	> 1000 µM	–	–	–	–
